Test results published in patent US11535632B2, “Solid forms of an S1P-receptor modulator” (ESCAPE Bio, Inc., priority 2019, dated 2022).

How the values were obtained:
Assay type in all cases: physicochemical
[1] = Competitive slurries of Form B and C in process relevant solvents; conditions: 72 hours, start Form B + C
Description: Determination of the relative stabilities of Form B and Form C was undertaken to identify which material was more thermodynamically stable in process relevant solvents. As a suspected solvate was isolated from experiments where DMAC was used as a solvent, only DMSO and acetic acid were determined to be appropriate process solvents. Combinations of these solvents with relevant antisolvents were therefore selected for the competitive slurry experiments.
Compound 1 (from Example 2) was dispensed into HPLC vials. To these, 1 ml of selected solvents was subsequently added to give a suspension. Materials were slurried for 72 hours at 90° C., 50° C. or 25° C. with 500 rpm stirring. Material was subsequently isolated by centrifugation and analyzed by XRPD.

[2] = Water activity study; conditions: 4 days, start Form A + Form B
Description: About 15 mg of Form A and 15 mg of Form B were added to the saturated solutions of different water activities and equilibrated at 25° C. and 50° C. for 4 days, respectively. The resulting suspensions were filtered, and the solid parts (wet cake) were investigated by XRPD to determine the polymorph.
According to XRPD results, Form B was obtained in methanol/water with water activity (a.w.) ranging from 0.1 to 0.9 at 25° C., as shown in FIGS. 20A-20B. At 50° C., Form B was obtained in methanol/water with a.w. ≥0.2, whereas a mixture of Form A and Form B was obtained in a.w. […] The water activity of the binary solvent system was calculated based on UNIFAC method (UNIQUAC Functional-group Activity Coefficients).

[3] = Solubility and metastable zone width by Crystal 16; conditions: for metastable zone width: 0.5° C./min
Description: A Crystal 16 crystallization system (Technobis, NL) was used to determine the solubility and metastable zone of the material as a function of temperature. Slurries of the API, in different overall concentrations, were prepared by adding a known amount of solid to a known amount of chilled solvent (between 0.5 and 1.5 ml) and stirred at 350 rpm using a magnetic bar. The saturation temperature was measured through cycles of heating and cooling from 20 to 90° C. at 0.5° C./min.
Upon increasing the temperature, the solid completely dissolved and the suspension became a clear solution such that the light transmission reached its maximum value. This temperature was assigned as the clear point, which was assumed to coincide with the saturation temperature. Then, by cooling the solution at a rate of 0.5° C./min, the temperature at which particles first formed was detected by a decrease in the light transmission. This was assigned as the cloud point. The points were fitted by a Van′t Hoff equation and the difference between the cloud and the clear points defined the metastable zone width (MSZW) of the system. The instrument control software was Crystallization Systems and the data were analyzed using Crystal Clear and Microsoft Excel.
The solubility of compound 1 (various masses) in DMAC and DMSO (1 ml) was analyzed on the Crystal 16 (between 25-90° C. for DMSO and 0-90° C. for DMAC). A heating/cooling rate of 0.5° C./min and a stirring rate of 300 rpm was used for all samples. The resulting turbidity/temperature plots were analyzed to obtain solubility curves and determine the metastable zone width. Any precipitated solids were isolated by filtration and analyzed by XRPD.

With `O=C(O)[C@H]1C[C@@H](N2CCc3oc(-c4ccc(OCc5ccc(Cl)cc5)cc4)nc3C2)C1` [Compound 1, (1s,3s)-3-(2-(4-((4-chlorobenzyl)oxy)phenyl)-6,7-dihydrooxazolo[4,5-c]pyridin-5(4H)-yl)cyclobutane-1-carboxylic acid] the “XRPD analysis after slurrying” value ([1]; Acetic acid:H2O (1:1), 25° C.) was “Form B”, the “XRPD analysis after slurrying” value ([1]; Acetic acid:H2O (1:1), 50° C.) was “Form B” and the “XRPD analysis after slurrying” value ([1]; Acetic acid:H2O (1:1), 90° C.) was “Form B”. For the same compound, the “XRPD analysis after slurrying” value ([1]; Acetic acid:MeCN (1:3), 25° C.) was “Form B”, the “XRPD analysis after slurrying” value ([1]; Acetic acid:MeCN (1:3), 50° C.) was “Form B” and the “XRPD analysis after slurrying” value ([1]; Acetic acid:MeCN (1:3), 90° C.) was “Form B”. The “XRPD analysis after slurrying” value ([1]; DMSO, 25° C.) was “Form B”, the “XRPD analysis after slurrying” value ([1]; DMSO, 50° C.) was “Poorly crystalline” and the “XRPD analysis after slurrying” value ([1]; DMSO, 90° C.) was “poorly crystalline Form A”. The “XRPD analysis after slurrying” value ([1]; DMSO:H2O (1:1), 25° C.) was “Form B”, the “XRPD analysis after slurrying” value ([1]; DMSO:H2O (1:1), 50° C.) was “Form B” and the “XRPD analysis after slurrying” value ([1]; DMSO:H2O (1:1), 90° C.) was “Form B”. The “XRPD of solid after equilibration” value ([2]; Methanol/water (20:80, v/v) a.w. = 0.9, 25° C.) was “Form B”, the “XRPD of solid after equilibration” value ([2]; Methanol/water (20:80, v/v) a.w. = 0.9, 50° C.) was “Form B” and the “XRPD of solid after equilibration” value ([2]; Methanol/water (57:43, v/v) a.w. = 0.7, 25° C.) was “Form B”. For the same compound, the “XRPD of solid after equilibration” value ([2]; Methanol/water (57:43, v/v) a.w. = 0.7, 50° C.) was “Form B”, the “XRPD of solid after equilibration” value ([2]; Methanol/water (69:31, v/v) a.w. = 0.6, 25° C.) was “Form B” and the “XRPD of solid after equilibration” value ([2]; Methanol/water (69:31, v/v) a.w. = 0.6, 50° C.) was “Form B”. The “XRPD of solid after equilibration” value ([2]; Methanol/water (77:23, v/v) a.w. = 0.5, 25° C.) was “Form B”, the “XRPD of solid after equilibration” value ([2]; Methanol/water (77:23, v/v) a.w. = 0.5, 50° C.) was “Form B” and the “XRPD of solid after equilibration” value ([2]; Methanol/water (84:16, v/v) a.w. = 0.4, 25° C.) was “Form B”. The “XRPD of solid after equilibration” value ([2]; Methanol/water (84:16, v/v) a.w. = 0.4, 50° C.) was “Form B”, the “XRPD of solid after equilibration” value ([2]; Methanol/water (89:11, v/v) a.w. = 0.3, 25° C.) was “Form B” and the “XRPD of solid after equilibration” value ([2]; Methanol/water (89:11, v/v) a.w. = 0.3, 50° C.) was “Form B”. The “XRPD of solid after equilibration” value ([2]; Methanol/water (93:7, v/v) a.w. = 0.2, 25° C.) was “Form B”, the “XRPD of solid after equilibration” value ([2]; Methanol/water (93:7, v/v) a.w. = 0.2, 50° C.) was “Form B” and the “XRPD of solid after equilibration” value ([2]; Methanol/water (97:3, v/v) a.w. = 0.1, 25° C.) was “Form B”. For the same compound, the “XRPD of solid after equilibration” value ([2]; Methanol/water (97:3, v/v) a.w. = 0.1, 50° C.) was “Form A + B”, the metastable zone width ([3]; DMAC, 0-90° C.) was “ca. 30 °C” and the metastable zone width ([3]; DMSO, 25-90° C.) was “ca. 30 °C”. The solubility ([3]; neat acetic acid) was “very high solubility”.
